Data set [1] concerns HeLa S3 cells. The data set is described as follows: Protective effect of peptides on apoptosis and necrosis in the presence of camptothecin (Annexin-V FITC / PI flow cytofluorimetry). To be noted: HeLa cell culture, 24 hours. The data set is classed as cell-based, human. The text has this: (§1) The experiments to study the effect of peptides on apoptosis and necrosis involved the use of reagents in the ApoTarget Annexin-V FITC Apoptosis Kit (Invitrogen, CIIIA). In addition to Annexin-V, marked by the FITC fluorescent stain, the ApoTarget Annexin-V FITC Apoptosis Kit contains propidium iodide (PI), a dye. PI can permeate only those cells whose cytoplasmic membrane is damaged, which is a characteristic sign of an advanced stage of apoptosis or necrosis. Having permeated cells with damaged cell membrane, PI binds itself to the DNA. The «red» fluorescence of resulting complexes is identified with a flow cytofluorimeter.
(§2) Therefore, the procedure of double staining (Annexin-V FITC plus PI) and the process of flow cytofluorimetry can be used to distinguish 3 cell populations and determine their percentage relationship: 1) non-apoptotic cells (Annexin-V-negative and PI-negative), 2) cells at an early stage of apoptosis (Annexin-V-positive and PI-negative), 3) necrotic cells or cells at an advanced stage of apoptosis (Annexin-V- positive and PI- positive). An increase in the percentage of apoptotic and necrotic cells can serve as a measure of how the compounds added to the culture medium act on these processes. Camptothecin (Camptothecin, Sigma, CIIIA), which is recommended by the manufacturer, was used as control in the experiments because of its pronounced ability to induce apoptosis and necrosis of cells, especially tumor ones.
(§3) Peptide solutions in sterile PBS with concentrations of 1 mg/ml were prepared immediately before the experiments to study the peptides' effect on apoptosis and necrosis. The same solutions that were stored in sterile test tubes at +4°C were used to study the proliferation activity. Working dilutions of peptides in the cell cultivation medium were prepared on the day of each experiment. A sterile plastic 96-well plate (Corning, USA) was used for this purpose. The dilutions were prepared so that the introduction of 25 µl of each working dilution in an experimental well with cultivated cells would result in final concentrations of peptides equal to 400, 200, 100 and 50 ng/ml.
(§4) The HeLa S3 and NIH 3T3 cells were cultivated with the use of reagents manufactured by Invitrogen (USA) and plastic vials, plates, pipettes and filters of Corning (USA). The cells were cultivated in DMEM, prepared with a dry concentrate dissolved in pyrogen-free distilled water (Millipore, USA). The medium contained 10 % FBS, 2 mM of glutamine and penicillin-streptomycin (diluted according to the vendor's recommendations). HeLa S3 and NIH 3T3 were grown in vials T150 at +37 °C in the atmosphere of 5.6 % CO2. The cells were constantly maintained in the logarithmic growth phase, to this end they were passed at least 2 times a week, with trypsin used to remove cells from the walls of the culture vials. Live cells were counted in a hemacytometer after staining the suspension aliquot with trypan blue.
(§5) The HeLa S3 and NIH 3T3 cells were removed from the surface of the culture vials and counted; the concentration was moved to 10^5 cell/ml, and the resulting suspensions were put in doses of 1 ml in the wells of a 24-well plate.
(§6) Having made sure on the following day that the cells adhered to the plate's surface, the culture medium was replaced with a fresh one in each well.
(§7) Camptothecin was added in the control wells (positive control - stimulation of apoptosis and necrosis) to the final concentration of 50 µM that had been determined in preliminary experiments with the NIH 3T3 and HeLa S3 cells. 25 µl of fresh culture medium were added in the control wells (negative control), 25 µl of working peptide dilutions were added in each experimental well (each working dilution - twice), as well as camptothecin in the same final concentration. Incubation was conducted at +37 °C. […]

Data set [2] can be described thus: Stability of peptides in storage in solution (HPLC analysis). The settings on record: 0.05 M ammonium acetate buffer, approx. 1 mg/ml.
Method: The peptides were dissolved in 0.05 M of an ammonium acetate buffer with pH 4.5 and pH 7.5 so that their concentrations achieved approximately 1 mg/ml. The solutions were sterilely filtered and kept in sterile, well-sealed vials. Upon expiration of the storage period the substances were analyzed with HPLC.
Data set [3] concerns NIH 3T3 cells. The data set is described as follows: Protective effect of peptides on apoptosis and necrosis in the presence of camptothecin (Annexin-V FITC / PI flow cytofluorimetry). The data set is classed as cell-based, mice. To be noted: NIH3T3 cell culture, 24 hours.
From the text: as §1, §2, §3, §4, §5, §6, §7

The target of data set [4] is T1, Annexin-V (Homo sapiens, UniProt P08758).
T1 sequence (P08758 1-320): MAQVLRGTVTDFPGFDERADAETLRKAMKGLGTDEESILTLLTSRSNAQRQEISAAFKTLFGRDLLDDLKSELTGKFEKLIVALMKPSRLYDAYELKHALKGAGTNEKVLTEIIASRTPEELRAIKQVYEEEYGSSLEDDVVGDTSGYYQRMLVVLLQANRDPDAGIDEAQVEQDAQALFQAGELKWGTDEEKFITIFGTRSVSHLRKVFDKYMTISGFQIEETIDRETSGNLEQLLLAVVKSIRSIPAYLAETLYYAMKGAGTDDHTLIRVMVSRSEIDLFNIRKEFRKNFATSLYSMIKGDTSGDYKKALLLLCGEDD
The settings on record: calcium-dependent phospholipid binding; cited from earlier work.

The mark [5] stands for this setting: peptide 50 ng/ml + camptothecin 50 µM.
[6] abbreviates: peptide 100 ng/ml + camptothecin 50 µM.
Where [7] appears, read: peptide 200 ng/ml + camptothecin 50 µM.
[8] abbreviates: peptide 400 ng/ml + camptothecin 50 µM.

As to H-Val-Asp-Glu-OH [VDE], the Apoptosis came to 2.2% in data set [1] (setting [5]); 3.1% in data set [1] (setting [6]); 3.5% in data set [1] (setting [7]); 2% in data set [1] (setting [8]); 3.5% in data set [3] (setting [5]); 1.8% in data set [3] (setting [6]). Also, the results for the Apoptosis in data set [3] (setting [7]) and in data set [3] (setting [8]) were 2.2% and 3%, respectively. The Necrosis was found to be 3.1% in data set [1] (setting [5]); 3.6% in data set [1] (setting [6]); 4% in data set [1] (setting [7]); 2.4% in data set [1] (setting [8]); 5% in data set [3] (setting [5]); 2% in data set [3] (setting [6]). In addition, the Necrosis in data set [3] (setting [7]) worked out at 3%; in data set [3] (setting [8]), 4%. Further, the “Peptide stability in storage” value came to 98.1 in data set [2] (1hour, pH 4.5, 22°C); 98.1 in data set [2] (1hour, pH 7.5, 22°C); 98.0 in data set [2] (10 days, pH 4.5, 22°C); 97.7 in data set [2] (10 days, pH 7.5, 22°C); 97.6 in data set [2] (30 days, pH 4.5, 22°C); 97.6 in data set [2] (30 days, pH 7.5, 22°C). In addition, the “Peptide stability in storage” value in data set [2] (60 days, pH 4.5, 22°C) amounted to 97.55; in data set [2] (60 days, pH 7.5, 22°C), 97.55; in data set [2] (90 days, pH 4.5, 22°C), 97.55; in data set [2] (90 days, pH 7.5, 22°C), 97.2.

In the case of phosphatidylcholine, in data set [4], the Kd (in general, the concentration at which binding is half-saturated) was 0.5 nM.
